Data taken from patent publication EP0912195B1, “VACCINE COMPRISING ANTIGENS BOUND TO CARRIERS THROUGH LABILE BONDS” (PEPSCAN SYSTEMS B.V., priority 1996, dated 1997).
Residues, ends and D or L forms follow the SMILES beside them. *: point of attachment. Palmitoyl = CCCCCCCCCCCCCCCC(=O)*

Conditions: 3 hours

SMILES | stability of thioesters during acidolytic removal of tert-butyloxy functions and/or cleavage of the resin-peptide bond
CCCCCCCCCCCCCCCC(=O)SC[C@H](NC(C)=O)C(=O)N[C@@H](CO)C(=O)N[C@@H](CCC(=O)O)C(=O)N[C@H](C(=O)N[C@@H](Cc1ccccc1)C(=O)N[C@@H](CCCNC(=N)N)C(=O)N1CCC[C@H]1C(=O)NCC(=O)NCC(=O)NCC(=O)N[C@@H](CC(=O)O)C(=O)N[C@@H](CCSC)C(=O)N[C@@H](CCCNC(=N)N)C(N)=O)[C@@H](C)CC [Ac-C(palm)SEIFRPGGGDMR-NH2] (Ac-C(Palmitoyl)SEIFRPGGGDMR-NH2) | stable under all these acidic conditions
CCCCCCCCCCCCCCCC(=O)SC[C@H](NC(C)=O)C(=O)N[C@H](C(=O)N[C@@H](C)C(=O)N[C@H](C(=O)N[C@@H](CCC(N)=O)C(=O)N[C@@H](CC(C)C)C(=O)N1CCC[C@H]1C(=O)N[C@@H](C)C(=O)N[C@@H](CO)C(=O)N[C@@H](Cc1ccccc1)C(N)=O)[C@@H](C)O)C(C)C [Ac-C(palm)VATQLPASF-NH2] (Ac-C(Palmitoyl)VATQLPASF-NH2) | stable under all these acidic conditions
